From patent publication US20210401823A1, “INHIBITORS AND ANTAGONISTS OF GPR84 FOR THE TREATMENT OF ENDOMETRIOSIS” (Bayer Pharma Aktiengesellschaft, priority 2017, published 2021)
pEC50, pIC50: −log10 of the molar value. One block for each compound: values may come before it.

Key:
GPR84 [1] = molecular target: T1, GPR84 (Homo sapiens, UniProt Q9NQS5); experiment: GPR84 cAMP release assay, test for agonism (cAMP Hunter CHO-K1 GPR84 Gi cells, TR-FRET); type: cell-based; conditions: 60 min incubation
T1 construct: host or cells: CHO-K1 (cAMP Hunter CHO-K1 GPR84 Gi cells)
T1 sequence (Q9NQS5 whole entry): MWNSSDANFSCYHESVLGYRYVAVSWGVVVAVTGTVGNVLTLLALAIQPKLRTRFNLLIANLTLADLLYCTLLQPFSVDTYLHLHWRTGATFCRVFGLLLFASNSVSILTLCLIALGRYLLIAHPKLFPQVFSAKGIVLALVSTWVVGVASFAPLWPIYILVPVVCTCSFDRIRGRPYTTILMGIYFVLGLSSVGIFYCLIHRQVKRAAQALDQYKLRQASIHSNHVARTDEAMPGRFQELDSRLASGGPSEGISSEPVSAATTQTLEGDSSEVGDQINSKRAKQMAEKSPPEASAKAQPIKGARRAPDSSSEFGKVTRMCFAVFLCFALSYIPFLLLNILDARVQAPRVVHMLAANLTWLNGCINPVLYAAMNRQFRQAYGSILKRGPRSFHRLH
Protocol: For the resuscitation of frozen cells (cAMP Hunter™ CHO-K1 GPR84 Gi cells; DiscoverX; #95-0158C2) one vial is taken out of the liquid nitrogen storage and rapidly thawed in a water bath at 37° C. for some 1 to 3 minutes. Immediately afterwards the cells are transferred carefully by decanting into a 50 ml Falcon Tube containing 15 ml of pre-warmed full cell culture medium (HAM's F12; 10% FCS; no selection markers). Gentle swirling is used to assist their resuspension. In a next step, the cells are harvested straight away via low g centrifugation for 5 minutes (Hereaus Multifuge 4 KR; 400 rpm; rcf=44 g) to avoid over-compacting the cell pellet. Gentle decanting is used to get rid of the medium. Finally assay readiness is achieved by carefully re-suspending the cell pellet in 5 ml of the final assay medium (HAM's F12; 10% FCS; no selection markers). In a last step, cell viability and the actual cell number is determined (Omni Life Science; Casy Cell Counter/Analyzer) prior to correcting the volume for the final cell number to be seeded, i.e. 2500 cells/μl. […]
2 μl's of assay ready frozen cells are directly seeded into the wells of a non-sterile 384-well plate (Greiner; white; #784075; 5000 cells/well). […] Time resolved FRET (TR-FRET) signals are determined 60 minutes later using an appropriate HTRF reader (BMG Labtech: Pherastar). […]

PBMCs = experiment: In vitro assay 2: GPR84 ligand associated IL-1beta and TNFalpha release from PBMCs (ELISA); type: cell-based; conditions: for IL-1beta concentration / TNF alpha concentration: PBMCs stimulated with LPS 100 ng/ml 24 hours, treatment 4 h
Protocol: PBMCs were isolated by Ficoll-Paque Plus (Biochrom) density gradient centrifugation from whole blood. Briefly, PBMCs were centrifuged at 250 g for 30 sec and resuspended and cultured in RPMI 1640 medium [Gibco, CAT No. 11875093] with 10% heat-inactivated FBS, L-Glutamine (10 g/L), penicillin (100 IU/mL), and streptomycin ([…]) at 37° C. in a 5% CO2 environment. Cells were stimulated with LPS (100 ng/ml, Sigma-Aldrich) for 24 hours and treated with the GPR84 agonist 6-n-octylaminouracil and antagonist CMPD 139 for 4 h. IL-1beta and TNFalpha concentrations were analyzed by ELISA (Mesoscale Discovery, Germany).

[2] = test system: Human eutopic endometrium tissue biopsies; experiment: Ex vivo assay 1: GPR84 ligand associated endometrial inflammation assay (cytokines in supernatant, Bio-Plex); type: cell-based; conditions: for IL-1beta in supernatant / TNFalpha in supernatant: endometrium slices, 21 hours
Protocol: Human eutopic endometrium tissue biopsies as surrogate for endometriosis lesion were cut into small slices, washed with HBSS buffer [ThermoFischer, 14175095] and incubated in DMEM/F12 medium [ThermoFischer, 11320-033], supplemented with 5% FCS for 3 hours. […] After 21 hours cytokines in the supernatant were quantified with the Bio-Plex platform according to the supplier's instructions. Data were analyzed using the GraphPad Software (La Jolla, USA). […] These mediators included IL1β and TNFalpha. […] Thus, activation of GPR84 contributes to the inflammation associated with endometriosis and antagonists are able to reduce inflammation

GPR84 [3] = molecular target: T1, GPR84; experiment: GPR84 cAMP release assay, test for antagonism of agonist-induced activation (cAMP Hunter CHO-K1 GPR84 Gi cells, TR-FRET); type: cell-based
Protocol: For the resuscitation of frozen cells (cAMP Hunter™ CHO-K1 GPR84 Gi cells; DiscoverX; #95-0158C2) one vial is taken out of the liquid nitrogen storage and rapidly thawed in a water bath at 37° C. for some 1 to 3 minutes. Immediately afterwards the cells are transferred carefully by decanting into a 50 ml Falcon Tube containing 15 ml of pre-warmed full cell culture medium (HAM's F12; 10% FCS; no selection markers). Gentle swirling is used to assist their resuspension. In a next step, the cells are harvested straight away via low g centrifugation for 5 minutes (Hereaus Multifuge 4 KR; 400 rpm; rcf=44 g) to avoid over-compacting the cell pellet. Gentle decanting is used to get rid of the medium. Finally assay readiness is achieved by carefully re-suspending the cell pellet in 5 ml of the final assay medium (HAM's F12; 10% FCS; no selection markers). In a last step, cell viability and the actual cell number is determined (Omni Life Science; Casy Cell Counter/Analyzer) prior to correcting the volume for the final cell number to be seeded, i.e. 2500 cells/μl. Cell seeding is achieved either with the help of multi-channel pipettes or appropriate bulk reagent dispensers.
In a first step, 1 μl of a 4× antagonist solution in the predefined test range (prepared in assay medium; HAM's F12; 10% FCS; 2 mM Glutamin; no selection markers) is added into the wells of a non-sterile 384-well plate (Greiner; white; #784075; Immediately afterwards 2 μl's of assay ready frozen cells are directly seeded into the plate (5000 cells/well)). […] Time resolved FRET (TR-FRET) signals are determined 60 minutes later using an appropriate HTRF reader (BMG Labtech: Pherastar).
Dose response experiments for GPR84 agonists were carried out using the cAMP Hunter™ CHO-K1 GPR84 Gi cell system (DiscoverX) (PathHunter® CHO-K1 hGPR84 β-Arrestin Cell Line cultured with DMF12 HAM, 9% FBS; 300 ug/ml Hygromycin; 800 ug/ml Geneticin; 2 mM Glut; 1% Pen/Strep) in a 384-well plate format. […] Following a 60-minute incubation cAMP levels were determined by TR-FRET as described above. […]

[4] = test system: mouse CFA model of inflammation; experiment: CFA pain model, dynamic weight-bearing (DWB); type: in vivo; conditions: preventive, 24 h after CFA, vehicle 42.91 +/− 19.32
Protocol: The efficacy of CMPD139 in vivo on inflammatory pain was measured in inflamed paws after administration of complete Freunds' adjuvans (CFA) (24 h) in the dynamic weight-bearing (DWB) model. The effects of repeated preventive treatment with CMPD139 on pain following repeated oral and subcutaneous administration (3×) in the mouse CFA model of inflammation were investigated using a preventive setting. The GPR84 antagonist CMPD139 (90 or 30 mg/kg, p.o.+s.c., 3× doses) was administered 2 h before injection of CFA and 6-8 h later at day 0. At 24 h after CFA application, the third dose of CMPD139 was given 2 h before DWB testing. Statistical analysis was performed with one-way analysis of variance, followed by Bonferroni's multiple comparison test against vehicle control groups using the GraphPad PRISM software, *p<0.05.

[5] = 6-n-octylaminouracil (10 μM) alone
[6] = Decanoic Acid (10 μM) + CMPD. 139 (10 μM)
[7] = 6-n-octylaminouracil (10 μM) + CMPD 139 (10 μM)

pEC50 (GPR84 [1]): 4.62
Structure (SMILES): CCCCCCCCC(O)C(=O)O (stereo not shown) [2-OH-decanoic acid, 2-Hydroxydecanoic acid]

Structure (SMILES): CCCCCCCCNc1cc(=O)[nH]c(=O)[nH]1 [6-n-octylaminouracil, reference compound]
IL-1beta concentration (PBMCs; [5]): 3427.673 pg/mL
TNF alpha concentration (PBMCs; [5]): 955.6923 pg/mL

pIC50 (GPR84 [3]; with 6-n-octylaminouracil 1.34 × 10^−7 M): 7.70
pIC50 (GPR84 [3]; with 40 × 10^−6 M 2-OH decanoic acid): 7.80
pIC50 (GPR84 [3]; with embelin 6.00 10^−6 M): 8.03
Structure (SMILES): Cc1ccc(-c2ccc3c(c2)CCn2c-3cc(OCC3COc4ncccc4O3)nc2=O)cn1 (stereo not shown) [CMPD 139]
Effect on cytokine and growth factor levels compared to agonist alone ([2]; CMPD 139 at 10^−5 M combined with decanoic acid): reduced all measured cytokine and growth factors
IL-1beta in supernatant [2, 6]: 0.9600 pg/mL
TNFalpha in supernatant [2, 6]: 1.270 pg/mL
IL-1beta concentration (PBMCs; [7]): 1933.011 pg/mL
TNF alpha concentration (PBMCs; [7]): 479.6307 pg/mL
Effect on GPR84 elevated IL-1beta and TNFalpha levels (PBMCs; LPS-stimulated PBMCs, with 6-n-octylaminouracil): reduced GPR84 elevated IL-1beta and TNFalpha levels
Weight distribution (% Ipsi/contra) 2 h post last dose mean +/− SD ([4]; 3x 30 + 30 mg/kg p.o./s.c.): 55.82 +/− 17.38 % Ipsi/contra
Weight distribution (% Ipsi/contra) 2 h post last dose mean +/− SD ([4]; 3x 90 + 90 mg/kg p.o./s.c., *p<0.05 vs vehicle): 60.37 +/− 15.45* % Ipsi/contra

Structure (SMILES): CCCCCCCCCC(=O)O [Decanoic acid, reference compound]
IL-1beta in supernatant ([2]; Decanoic Acid (10 μM) alone): 1.413 pg/mL
TNFalpha in supernatant ([2]; Decanoic Acid (10 μM) alone): 1.953 pg/mL
